Each structure is given as a SMILES string. Bounds are passed on as bounds.

As usually defined, the melting point is the temperature, or range, at which the solid turns liquid.

`O=C(O)c1ccc(C(c2cc(F)ccc2F)S(=O)(=O)c2ccc(Cl)cc2)nc1` (stereo not drawn): the melting point is over 230 °C.
The result for `CCCc1n[nH]c(=O)c2c(C)ncn12` reads 168 to 170 °C; that for `COc1cc(CO)ccc1OCc1nc(-c2cccnc2)oc1C`, 117 to 118 °C.
Regarding `CCCCCCCCCCCCCCC(=S)NCCCN1CCOCC1`, the melting point is 46 °C.
The result for `NC(=S)c1cc(Cl)cc2cc(Cl)cnc12` reads 226 °C; that for `CCCC(=O)Nc1n[nH]c2cc(Cl)ccc12`, 230 °C.
`O=C(NC1CCC(CCN2CCC(c3cccc4c3CCO4)CC2)CC1)C(O)C(F)(F)F` (racemic): the melting point was determined as 179 °C.
Take `CC(C)OC(=O)Nc1ccc(N)c(N)c1`: the melting point was 108 to 110 °C.
For `CN1Cc2c(C(N)=O)ncn2-c2sccc2C1=O` the value was over 250 °C; for `CC(C)(O)C(=O)Nc1c(C(=O)c2ccccc2)[nH]c2cc(Cl)ccc12`, 234 to 238 °C; for `NC(=O)c1sc2ncnc(-c3cccc(NC(=O)Nc4ccncc4)c3)c2c1N`, 177 to 179 °C.
For `O=C1NCc2ccccc2N1C1CCN(Cc2ccccc2)CC1` the value was 120 °C; for `CC1(C)CC(=O)N(CC(CS(=O)(=O)c2ccc(-c3ccc(F)cc3)cc2)N(O)C=O)C(=O)C1` (stereo not drawn), 105 to 109 °C; for `BrCc1ccc(C=Cc2ccccc2)cc1`, 125 to 127 °C.
The result for `NC1CCN(C(=O)c2ccc(-c3[nH]nc4c3C(=O)c3c(NC(=O)NN5CCOCC5)cccc3-4)s2)C1` (stereo not drawn) reads 201 to 202 °C.
Take `CCCCC1(CCCC)N[C@@H](c2nc(-c3ccccc3)c[nH]2)Cc2c1sc1ccccc21`: the melting point fell in the range of 198 to 200 °C.
In turn, `COc1ccc(C(C#N)C(=O)Cc2ccccc2)cc1` (stereo not drawn) had a melting point of 115 to 116 °C.
Molecule `ClC12CCCC(C1)C1CCC2C1` (stereo not drawn) gave a melting point of 68 to 69 °C.
In the case of `CCC1CC(=O)N(Cc2ccc(N)cc2)N=C1c1ccc(OC)c(OC)c1` (stereo not drawn), the melting point was 49 °C.
The result for `CCOC(=O)c1cc2cc(-c3ccccc3OC)ccc2nn1` reads 143 to 145 °C; that for `Cn1cc(Br)cc(Nc2ccncn2)c1=O`, 217 to 219 °C.
The result for `COC(=O)COc1ccc(C(=O)CN2CCN(c3ccncc3)CC2=O)cc1` reads 164 to 165 °C; that for `O=c1nc(-c2ccc(Cl)s2)cc(C(F)(F)F)[nH]1`, 191 °C; that for `O=C(O)CCn1c(=O)c2ccccc2n(CCCN2CCC(OC(c3ccccc3)c3ccccc3)CC2)c1=O`, 150 to 151 °C.
As to `CCOC(=O)CCn1cnc2c(=O)[nH]cnc21`, the melting point was in the range of 197 to 200 °C.
For `CC(C)(C)OC(=O)N[C@H]1CCN(OCc2ccccc2)C1=O` the value was 113 to 114 °C.
For `CCCCOC(=O)c1ccccc1-c1ccc(Cn2c(CCCC)nc(C(C)(C)O)c2C(=O)O)cc1` the value was 158 to 159 °C; for `Cn1nnnc1SCC1=C(C(=O)OCOC(=O)C(C)(C)C)N2C(=O)C(NC(=O)Cc3csc(=O)s3)C2SC1` (stereo not drawn), 100 °C; for `COc1cccc(-c2ccc3ccc(NC(=O)c4cccc(Br)c4)nc3n2)c1`, 104 °C.
For `O=C1Nc2ccccc2C1=Cc1cccs1` the value was 208 to 210 °C.
Consider `COc1cc(CC2SC(N3CCCC3)=NC2=O)cc(-c2ccc(O)c(C3(C)CCCCC3)c2)c1` (stereo not drawn), for which the melting point is 88 to 91 °C.
Molecule `CC1(C)OC(C=Cc2ccc(Cl)cc2)=CC1=O` registered a melting point of 91 to 92 °C.
For `C[C@H]1[C@@H](C(N)=O)CCN1c1ccc(C#N)c2ccccc12` the value was 204 to 206 °C; for `CCN(CC)CCNC(=O)N1CCCC(S(=O)(=O)c2ccc(OC)cc2)C1` (stereo not drawn), 118 to 121 °C; for `Cc1cc(Oc2cccc(C(F)(F)F)c2)nn1C(=O)Nc1ccc(F)cc1`, 70 to 72 °C.
For `O=[N+]([O-])c1ccc(Cl)c(C=NNc2c(Cl)cc(Cl)cc2Cl)c1` the value was 113 to 116 °C; for `Cc1oc(-c2ccccc2)nc1COc1ccc(CCCCc2nnn[nH]2)cc1`, 116 to 117 °C.
The result for `CCOC(=O)/C=C1\OC(=O)c2ccccc21` reads 132 to 134 °C.
In turn, `CC(=O)NC(CCc1ccc(C(O)CCCCCCc2ccccc2)cc1)(CO[Si](C)(C)C(C)(C)C)CO[Si](C)(C)C(C)(C)C` (stereo not drawn) came in with a melting point of 121 to 122 °C.
The result for `O=C(C(c1ccccc1)n1cnc2[nH]ncc2c1=S)N1CCC(C2C=C(O)C=CN2)CC1` (stereo not drawn) reads 138 to 142 °C.
The molecule `CCc1ccc(C2=NC(C)(C(C)C)C(=O)N2CC=CC(=O)O)nc1` (stereo not drawn) displayed a melting point of 53 to 58 °C.
For `O=C1NC(=Cc2ccccc2Cl)C(=O)C1=NO` the value was 176 °C.
The result for `Cc1ncc(CSC(=O)c2ccccc2)c(CO)c1O` reads 174 to 177 °C; that for `COc1cccc(CO)c1C`, 63 to 64 °C; that for `CCCc1c(OCCCCCCC2(C)CC(=O)c3ccc(OCC(=O)O)c(CCC)c3O2)ccc(C(C)=O)c1O` (stereo not drawn), 120 to 125 °C.
The result for `C=CCOC(=O)c1ccc(NC(=O)c2ccc(OC)c(C34CC5CC(CC(C5)C3)C4)c2)cc1` reads 191 to 192 °C.
Take `COC(=O)c1ncc[nH]1`: the melting point fell in the range of 187 to 188 °C.
With `COC1OC(CO)C(OCc2ccccc2)C(O)C1OCc1ccccc1` (stereo not drawn), the melting point was in the range of 104 to 105 °C.
For `CC1(C(O)C(c2cccc(Cl)c2)n2ccnc2)COC1` (stereo not drawn) the value was 145 to 146 °C; for `COc1cc(Cl)c(-n2nnc3c(-c4ccccc4C)nc(C)nc32)c(OC)c1`, 173 to 174 °C.
The result for `CCc1c(C)c(=O)oc2cc(-c3nnc(C)s3)cc(OC)c12` reads 135 to 138 °C; that for `CONS(=O)(=O)c1cccc(C)c1`, 90 to 92 °C.
For `Oc1cnccc1CCCOc1cccnc1Oc1ccccc1` the value was 163 to 165 °C; for `CCCn1cnc2c1c1nnc(-c3ccncc3)n1c(=O)n2CCC`, 194 to 199 °C; for `N#CC=Cc1ccc2c(c1)-c1c3c(c4c([nH]c5ccccc54)c1C2)C(=O)NC3`, over 330 °C.
For `CCOCc1nc2cnc3cc(OCCNC(=O)OC(C)(C)C)ccc3c2n1CC1COC(C)(C)O1` (stereo not drawn), the melting point fell in the range of 152 to 153 °C.
Take `CNC1CCN(c2nc3ccccc3n2Cc2ccc(C#N)cc2)CC1`: the melting point amounted to 133 °C.
The result for `N=C(NCc1ccn(C2=CC3=C(CC2)CCc2[nH]c(=O)c(=O)n(CC(=O)O)c23)c1)Nc1ccccc1` reads over 225 °C; that for `COC1(c2cc(F)cc(OCc3ccc4c(c3)CCC(=S)N4C)c2)CCOCC1`, 136 to 138 °C.
For `CCCCCCCCCCCCCCCC(O)=S` the value was 64 to 66 °C; for `CCCCC(=O)N(Cc1ccc2c(c1)CCc1ccccc1N2CC#N)C(C(=O)O)C(C)C` (stereo not drawn), 82 °C; for `O=C1c2cccc3c(N4CCCC4)c(F)cc(c23)C(=O)N1O`, 224 to 226 °C.
As to `Clc1ccc(-c2nc3n(c2Br)CCS3)c(Cl)c1`, the melting point was 200 to 202 °C.
In turn, `Cc1cc(=O)n(-c2ccc(Cl)cc2F)c(=O)[nH]1` displayed a melting point of over 220 °C.
The molecule `CCOc1ccc(C=Cc2ccc(OC(F)F)cc2)cc1` displayed a melting point of 177 °C.
Consider `CC1(NC(=O)CN2C(=O)c3ccccc3C2=O)CCCCCC1`, for which the melting point stood at 190 °C.
Turning to `O=C(CNC(=O)c1ccc(F)c([N+](=O)[O-])c1)OCc1ccccc1`, the melting point was 84 to 86 °C.
The result for `FC(F)(F)Sc1c(-c2ccc(Cl)cc2)[nH]c(C(F)(F)F)c1Br` reads 87 to 88.5 °C; that for `Cn1cc(C[C@H]2NC(=O)[C@@H](CCC(=O)O)NC2=O)c2ccccc21`, 228 °C.
For `O=C(Nc1ccc(-n2nc(C(F)(F)F)cc2C(F)(F)F)cc1)c1ccc(C(F)(F)F)cc1C(F)(F)F` the value was 200 to 201 °C; for `Cc1c[nH]c(=O)nc1OCc1ccccc1`, 181 to 182 °C; for `CCc1nc(C)[nH]c1I`, 156 to 159 °C.
For `COCc1cccc(COC)c1SSc1c(COC)cccc1COC` the value was 89 to 90 °C.
Molecule `COCCNC(=O)COc1ccn2nc(-c3ccccc3)c(-c3ccc(=O)n(C(C)C)n3)c2c1` had a melting point of 144 to 146 °C.
For `COc1cccc2c(=O)cc(C3CC3C(=O)O)oc12` (stereo not drawn) the value was 193 to 196 °C; for `OCc1cc(Cl)c(N=C2NCCN2)c(Cl)c1`, 208 to 210 °C.
The result for `COC(=O)Cc1ccc(C(=O)c2ccc(C)cc2)[nH]1` reads 118 to 120 °C; that for `Cc1cc(OC(F)(F)C(F)F)ccc1N1C(=O)c2cccc(Cl)c2C1=O`, 121 to 122 °C; that for `CCOC(=O)c1nc(NC)sc1C(=O)CBr`, 130 to 132 °C.
For `O=C(C[N+](=O)[O-])OCCSc1ccccc1` the value was 22 to 24 °C.
On to `COC(=O)c1cc(C(=O)c2ccc(OC)c(C(=O)OC)c2)ccc1OC`, for which the melting point fell in the range of 142 to 144 °C.
The result for `Nc1ccn([C@H]2C=C[C@@H](O)CC2)c(=O)n1` (racemic) reads 224 to 226 °C; that for `COC1OC(=O)CC(C)(C)C1O` (stereo not drawn), 72 °C; that for `CNC(=S)n1nc(Sc2ccc(C#N)cc2)nc1N`, 200 to 203 °C.
With `COc1cc2cc(C3CCCCC3)sc2c(Cl)c1Cl`, the melting point is 60 °C.
For `COc1ccc2c3c([nH]c2c1[N+](=O)[O-])C(=O)CC3` the value was 228 °C; for `CCc1ccccc1C(N)=NO`, 54 to 55 °C.
For `CN(C)C=C(C#N)C(=O)c1ccc(C(C)(CN)C(=O)OC(C)(C)C)cc1` (stereo not drawn) the value was 160 to 162 °C.
For `O=C1C(CCC(O)c2ccc(F)cc2)C(c2ccc(-c3ccc(O)cc3)cc2)N1c1ccc(F)cc1` (stereo not drawn) the value was 110 °C; for `CC(=O)N1c2ccccc2[C@@]2(C)Cc3ccccc3[C@@]12C` (relative stereo), 81 °C.
`COc1ccc2cccc(CC(=O)O)c2c1` displayed a melting point of 154 to 156 °C.
The result for `CCOc1cccc2c(=O)c3ccccc3sc12` reads 112 to 115 °C.
Regarding `Nc1ncccc1-c1nc2cccnc2n1-c1ccc(CNC(=O)c2ccccn2)cc1`, the melting point is 172 to 174 °C.

Values taken from a melting point compilation (Tetko et al.; mined from patent text by program, amines drawn as free bases though some values may be those of a salt).
